Consider three compounds from patent US20210405025A1, “IDENTIFYING COMPOUNDS FOR TREATING CANCER AND USE THEREOF” (THE UAB RESEARCH FOUNDATION, priority 2018, published 2021).

Molecules are shown by their SMILES. Like-named read-outs stand apart in the source and are kept apart here.

In data set [1] the test system is relapsed AML cells. Description: Drug sensitivity assay, 1,536-well, 3-day culture with individual approved drugs at 10 μM, viability by alamarBlue. The conditions noted are these: number of relapsed AML cases out of 18 tested with >70% cell death; 10 μM, 3-day culture. The class given is cell-based, human. An outline of the steps:
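Three-day exposure of primary AML cells to individual drugs in 1,536-well format, viability read as percent live cells. Cells were thawed, cultured overnight, sorted by FACS for viable blasts and plated at 4,000-4,500 cells/5 μL in cytokine-supplemented IMDM/BIT medium.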

For data set [2] the following is noted: read-out: In vivo cMax; plasma concentration achievable in vivo at the FDA-recommended dose and schedule; cited from earlier work.
The subject of data set [3] is AML patient samples. Description: 10-point dose-response drug screen of statins against AML patient samples, 3-day drug sensitivity assay. The class given is cell-based, human. The conditions noted are these: for IC50: 3-day assay. On the procedure: Drug sensitivity assays were performed using a 1,536-well platform where all cells and reagents were deposited in wells using an acoustic liquid handling unit that is highly accurate for dispensing of nanoliter volumes of liquid. […] After dispensing the cells into the wells, an independent drug at a known concentration is added to each well and incubated with the cells. After three days, the percentage of live cells in each well is determined to assess the killing efficiency of each compound. […] Cell viability assays are known to those of skill in the art. See, for example, Pemovska et al., Individualized systems medicine strategy to tailor treatments for patients with chemorefractory acute myeloid leukemia. Cancer Discovery 3:1416-1429, 2013; Pabst et al., Identification of small molecules that support human leukemia stem cell activity ex vivo. Nature Methods 11:436-442, 2014; Baccelli et al., A novel approach for the identification of efficient combination therapies in primary human acute myeloid leukemia specimens. Blood Cancer Journal 7:e529, 2017. In studies described herein, the 1,536-well format was utilized, which allowed for use of four times fewer cells as well as less drug and media components due to the small assay volume of 5 microliters. […] Other compounds like CellTiter-Glo (Promega, Madison, Wis.) are equally appropriate reagents for determining cell viability.
Conditions for the drug screening assays were as described in Pabst et al., Identification of small molecules that support human leukemia stem cell activity ex vivo, Nature Methods 11:436-442, 2014). Using this protocol, cells were cultured in Iscove's Modified Dulbecco's Medium (IMDM), 15% BIT (bovine serum albumin, insulin, transferrin; Stem Cell Technologies 09500 (Vancouver, Calif.)), 100 ng/ml SCF (Shenandoah 100-04 (Warwick, Pa.)), 50 ng/ml FLT3L (Shenandoah 100-21), 20 ng/ml IL-3 (Shenandoah 100-80), 20 ng/ml G-CSF (Shenandoah 100-72), 10^-4 M β-mercaptoethanol, gentamicin (50 μg/ml) and ciprofloxacin (10 μg/ml).
Cells were removed from liquid nitrogen and placed in a 37° C. bath, just until thawed. For 1,536-well screens utilizing 6,000 wells about 100 million cells were thawed. The volume was doubled with pre-warmed culture media and placed on ice for about one to two minutes. The cells were brought to a final volume of about 8 to 10 mL before spinning down at 1,100 rpm for 5 min at 10° C. The pelleted cells were resuspended in 10 mL of culture media and plated in a tissue-culture treated T75 flask at a density of 1 to 2 million cells/ml. The cells were cultured overnight prior to fluorescence-activated cell sorting of viable cells on the following day.
After cells were cultured overnight, a cell scraper was used to remove any cells that adhered to the plastic. The cells were gently pipetted up and down to break up aggregates. Then, the entire volume was transferred to a 50 mL conical tube through a 70 micron cell strainer to remove cell clumps. The T75 flask was rinsed and scraped with about 10 mL HBSS and transferred to the same 50 mL conical tube through the strainer. The harvested cells were spun down at 1,100 rpm for 5 min at 10° C. The cells were then resuspendd in about 300-500 microliters FACS buffer (HBSS+2% FBS+1× propidium iodide) and transferred to a FACS tube. The tube was placed on ice and viable cells that are forward- and side-scatter gated on viable myeloid blasts were sorted by FACS (the scatter gate should exclude small lymphocytes, large myeloid cells, and debris). After sorting the required number of viable cells, the cells were spun down at 1,100 rpm for 5 min at 10° C. and subsequently resuspended at 4,000-4,500 cells per 5 microliter volume of complete culture media with growth factors and penicillin/streptomycin.

Data set [4] deals with cGMP-inhibited phosphodiesterase (PDE3). The conditions noted are these: cited from earlier work.

The Cmax is the highest concentration seen after dosing. In general, IC50 refers to the concentration that inhibits the measured activity by half. Consider `O=C([O-])C[C@H](O)C[C@H](O)/C=C/c1c(C2CC2)nc2ccccc2c1-c1ccc(F)cc1.O=C([O-])C[C@H](O)C[C@H](O)/C=C/c1c(C2CC2)nc2ccccc2c1-c1ccc(F)cc1.[Ca+2]` [PITAVASTATIN CALCIUM], for which the “#Cases >70% cell death” value in data set [1] came to 13. The Cmax in data set [2] was 250 nM. In addition, in data set [3] (highly sensitive cases 285, 340 and 290, result in words), the statin-mediated killing result is “most significant activity”. The IC50 is 1350 nM in data set [3] (patient sample AML 280, read-out: IC50 AML 280); 157 nM in data set [3] (patient sample AML 285, read-out: IC50 AML 285); 149 nM in data set [3] (patient sample AML 290, read-out: IC50 AML 290); over 10000 nM in data set [3] (patient sample AML 297, read-out: IC50 AML 297); 1810 nM in data set [3] (patient sample AML 299, read-out: IC50 AML 299); 726 nM in data set [3] (patient sample AML 307, read-out: IC50 AML 307). In addition, the IC50 was 9830 nM in data set [3] (patient sample AML 330, read-out: IC50 AML 330); 5240 nM in data set [3] (patient sample AML 339, read-out: IC50 AML 339); 475 nM in data set [3] (patient sample AML 340, read-out: IC50 AML 340); over 10000 nM in data set [3] (patient sample AML 343, read-out: IC50 AML 343).

For the compound `CC(C)n1c(/C=C/C(O)CC(O)CC(=O)O)c(-c2ccc(F)cc2)c2ccccc21` (stereo not drawn) [FLUVASTATIN], the “#Cases >70% cell death” value in data set [1] was found to be 7. The Cmax in data set [2] is 490 nM. In addition, the IC50 in data set [3] (Homo sapiens, 72 h, patient sample AML 280, read-out: IC50 AML 280) was 2420 nM; in data set [3] (Homo sapiens, 72 h, patient sample AML 285, read-out: IC50 AML 285) it was 426 nM; in data set [3] (Homo sapiens, 72 h, patient sample AML 290, read-out: IC50 AML 290), 417 nM; in data set [3] (Homo sapiens, 72 h, patient sample AML 297, read-out: IC50 AML 297) it was over 10000 nM; in data set [3] (Homo sapiens, 72 h, patient sample AML 299, read-out: IC50 AML 299), 3810 nM; in data set [3] (Homo sapiens, 72 h, patient sample AML 307, read-out: IC50 AML 307), 1580 nM. For the same compound, the concentration for half-maximal inhibition (IC50) in data set [3] (Homo sapiens, 72 h, patient sample AML 330, read-out: IC50 AML 330) was over 10000 nM; in data set [3] (Homo sapiens, 72 h, patient sample AML 339, read-out: IC50 AML 339) it was 7790 nM; in data set [3] (Homo sapiens, 72 h, patient sample AML 340, read-out: IC50 AML 340) it was 721 nM; in data set [3] (Homo sapiens, 72 h, patient sample AML 343, read-out: IC50 AML 343), over 10000 nM.

`COc1cc2c(cc1OC)-c1c/c(=N\c3c(C)cc(C)cc3C)n(C)c(=O)n1CC2.Cl` [TREQUINSINçHCL]: the “#Cases >70% cell death” value in data set [1] came out at 1. The IC50 in data set [4] was 0.25 nM.
